From the METLIN SMRT retention time set (Domingo-Almenara et al. 2019) come the findings set out here.

This data set is described as follows: gradient 5% acetonitrile 3 min, to 50% in 2 min, to 85% in 15 min, held 3 min, 100 µL/min. As to conditions: column: Zorbax Extend-C18 2.1 x 50 mm; eluents: water / acetonitrile, 0.1% formic acid. The essentials:
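Using water and acetonitrile that each contained 0.1% formic acid, mixtures of ~100 pure standards were separated at 100 μL/min on a Zorbax Extend-C18 column (2.1 × 50 mm, 1.8 μm). The HPLC fed a quadrupole time-of-flight mass spectrometer working in positive and negative ionization mode, with dead and dwell volumes of 40 μL and 900 μL. Data were acquired over 3 months. Retention time was read from computationally picked adduct peaks after manual inspection of each.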
`O=C(c1ccc(OCC2CCCN(C(=O)c3ccco3)C2)cc1)N1CCOCC1` (centres undefined) displayed an RP-LC retention time of 712 s.

Compound `CCCN(C)C(=O)c1c(C)oc2c1CN(C(=O)CC)CC2` yielded an RP-LC retention time of 652 s.

Consider `COCCNC(=O)N1CCCC(C)(C(=O)NCc2ccccc2)C1` (centres undefined), for which the RP-LC retention time was determined as 639 s.

`Cc1sc2ccn(C)c(=O)c2c1C(=O)NC1CCN(Cc2ccccc2)CC1` had an RP-LC retention time of 1030 s.

Compound `CC1CCCCN1CCNC(=O)c1cc(=O)n2c(nc3ccccc32)s1` (centres undefined) had an RP-LC retention time of 626 s.

In turn, `O=C(Nc1ccc2c(c1)OCCO2)C1CCCN(C(=O)c2cc(-c3ccccn3)n[nH]2)C1` (centres undefined) had an RP-LC retention time of 656 s.

Turning to `Cc1oc(-c2[nH]ncc2C(=O)N(C)C)cc1S(=O)(=O)NC1CC1`, the RP-LC retention time amounted to 614 s.

`Cc1nn(C(C)C(=O)N2CCOCC2)c(=O)c2nn(-c3ccccc3)c(C)c12` (centres undefined) registered an RP-LC retention time of 684 s.

Consider `Cn1c(=O)n(C)c2cc(S(=O)(=O)c3ccc(F)cc3)c(NC(=O)c3ccc(F)cc3)cc21`, for which the RP-LC retention time was 899 s.

In turn, `Cc1nc2ccc(NC(=O)c3ccc(Cn4ccnc4)cc3)cc2s1` yielded an RP-LC retention time of 565 s.

The compound `O=C(C1CCCCC1)N1CCN(CC(F)(F)F)CC1` registered an RP-LC retention time of 796 s.

Regarding `Fc1ccc(OCc2nc(-c3cccc(-c4csc(C5CC5)n4)c3)no2)cc1`, the RP-LC retention time was 1290 s.

In turn, `CCCS(=O)(=O)c1nc2ccc(NS(=O)(=O)c3cccc4nsnc34)cc2s1` yielded an RP-LC retention time of 878 s.

For the compound `CC1(C(=O)NCc2cccc(F)c2)CCCN(S(=O)(=O)c2ccccc2)C1` (centres undefined), the RP-LC retention time was determined as 902 s.

Consider `COc1cc(NC(=O)N2CCC(n3c(CC(C)C)nc4cccnc43)CC2)cc(OC)c1OC`, for which the RP-LC retention time was determined as 662 s.

`CS(=O)(=O)c1ccc(-c2cnc(N)c(C(=O)Nc3ccccc3)n2)cc1`: the RP-LC retention time stood at 937 s.

With `CCCc1cc(N2CCN(C(=O)Cc3cccs3)CC2)nc2nnc(C)n12`, the RP-LC retention time was determined as 620 s.

Compound `O=C(c1ccsc1)N1CCN(S(=O)(=O)c2cc(-c3noc(C4CCC4)n3)cs2)CC1` returned an RP-LC retention time of 985 s.

`CN(C)CCN(Cc1ccco1)C(=O)c1c2c(nc3ccccc13)C(=O)N(C1CCCCC1)C2` showed an RP-LC retention time of 581 s.

Consider `CCc1ccc(NS(=O)(=O)c2ccc(-c3c(C)noc3C)cc2)cc1`, for which the RP-LC retention time is 996 s.

`CCOc1ccc(C(=O)N2CCCC2c2nc(-c3ccc(OC)c(OC)c3)no2)cc1OCC` (centres undefined) came in with an RP-LC retention time of 916 s.

`CC(=O)c1ccc(N2CCN(C(=O)c3nnn4c3COC(c3ccc(F)cc3)C4)CC2)cc1` (centres undefined) gave an RP-LC retention time of 914 s.

In turn, `CCc1cccc(C)c1Nc1c(-c2ccc(C(=O)NC(C)C)cc2)nc2cnccn12` came in with an RP-LC retention time of 814 s.

In turn, `Cc1ccc(C(=O)CC2(O)C(=O)Nc3ccc(F)cc32)cc1C` (centres undefined) yielded an RP-LC retention time of 776 s.

In the case of `Cc1cccc(NC(=O)N2CC(N(C3CCOCC3)S(C)(=O)=O)C2)c1`, the RP-LC retention time is 706 s.

Take `CC1=C(c2ccc(Cl)cc2)S(=O)(=O)N=C1N1CCCN(C(=O)C2CCC2)CC1`: the RP-LC retention time was found to be 850 s.

In turn, `Cn1c(=O)oc2cc(-c3noc(CNS(=O)(=O)c4ccccc4)n3)ccc21` displayed an RP-LC retention time of 805 s.

The compound `Cc1ccc(-c2cc3c4nnc(CCC(=O)N5CCN(C6CCCCC6)CC5)n4ccn3n2)cc1C` showed an RP-LC retention time of 682 s.

Consider `Cc1cc(=O)n(CC(=O)NC(C)CCc2ccccc2)c(N2CCOCC2)n1` (centres undefined), for which the RP-LC retention time is 713 s.

Consider `CNC(=O)c1cc(N2CCOCC2)nc2ccc(F)cc12`, for which the RP-LC retention time was determined as 590 s.

Regarding `COC[C@@H]1CN(Cc2cn(C)c3ccccc23)C[C@H]1c1nc(C)no1`, the RP-LC retention time came out at 656 s.

Regarding `Cc1ccc(-c2ccc(-n3nc(C)c(S(=O)(=O)N4CCOCC4)c3C)nn2)cc1C`, the RP-LC retention time was 1060 s.

Regarding `CCCn1c(=O)sc2cc(S(=O)(=O)N3CCC(C(=O)Nc4ccc(C)cc4)CC3)ccc21`, the RP-LC retention time was found to be 1010 s.

In turn, `CCNC(=O)C1=CCN(C(=O)c2cc(C)cc(C)c2)CC1` returned an RP-LC retention time of 720 s.

As for `O=C1CC(c2nc(-c3ccc(Cl)cc3)no2)CN1c1ccc(F)cc1` (centres undefined), the RP-LC retention time came to 1000 s.

Compound `Cc1ccc(N2CCC(NC(=O)c3ccccc3)C2=O)cc1C` (centres undefined) yielded an RP-LC retention time of 862 s.

In the case of `CCOc1ccc(OCC)c(NC(=O)C(C)Oc2ccc(=O)n(-c3ccc(F)cc3)n2)c1` (centres undefined), the RP-LC retention time was 953 s.

Compound `O=C(NCC1Cn2cccc2C(=O)N1Cc1ccccc1)NC1CCCC1` (centres undefined) registered an RP-LC retention time of 734 s.

`CCCNC(=O)N(C1CCOCC1)C1CCN(C(=O)c2cnccn2)CC1` gave an RP-LC retention time of 611 s.

Turning to `CCn1c(=O)oc2cc(-c3noc(-c4cc(SC)ccc4Cl)n3)ccc21`, the RP-LC retention time was determined as 1270 s.

Take `Cc1cc(C)n2nc(CN(C(=O)c3ccco3)c3ccccc3Cl)nc2n1`: the RP-LC retention time was 743 s.

In turn, `COc1ccc(N2CCN(C3CC(=O)N(Cc4ccc(N5CCCC5=O)cc4)C3=O)CC2)cc1` (centres undefined) returned an RP-LC retention time of 662 s.

Compound `COc1ccc(C(=O)Nc2cccn3nc(C4CCC4)nc23)cc1` showed an RP-LC retention time of 905 s.

Consider `Nc1cc(C2CCN(C(=O)c3cncc(Br)c3)CC2)no1`, for which the RP-LC retention time was determined as 620 s.

Consider `Cc1ccc(C(=O)N2CC(n3cc(COc4ccc(F)cc4)nn3)C2)c(=O)[nH]1`, for which the RP-LC retention time stood at 655 s.

The compound `O=C(CSc1nc2ccccc2o1)NCCn1nc(-c2ccco2)ccc1=O` came in with an RP-LC retention time of 674 s.

For the compound `Cc1ccc(C)c(NC(=O)Cn2nc3n(c2=O)CCCCC3)c1`, the RP-LC retention time is 722 s.

In turn, `O=C(Cc1cccs1)NCC(c1ccsc1)N1CCCC1` (centres undefined) registered an RP-LC retention time of 558 s.

`CN(C)c1ccc(CNC(=O)c2cc3n(n2)CC(C)(C(=O)NCc2ccc(F)cc2)N(C)C3=O)cc1` (centres undefined) registered an RP-LC retention time of 610 s.

`COc1ccc(S(=O)(=O)Cc2nc(-c3ccccc3Br)no2)cc1` came in with an RP-LC retention time of 905 s.

In turn, `O=C(c1ccco1)N1CCC(Cc2noc(C3CC3)n2)C1` (centres undefined) returned an RP-LC retention time of 709 s.

Take `Cc1nnc2ccc(-c3noc(Cc4ccccc4Cl)n3)cn12`: the RP-LC retention time was found to be 852 s.

As for `Cc1ccccc1-c1nnc(CSc2ccc(NC(=O)C3CC3)cc2)o1`, the RP-LC retention time amounted to 933 s.

As to `COc1cccc(C2Cn3nnc(-c4nc(-c5ccsc5)no4)c3CO2)c1` (centres undefined), the RP-LC retention time came out at 1070 s.

`CCCN1CCN(CCNC(=O)CCc2cc3ccc(C)cc3[nH]c2=O)CC1` returned an RP-LC retention time of 571 s.

Consider `CN1CC[C@@H](c2ccc(F)cc2)[C@H](COc2ccc3c(c2)OCO3)C1`, for which the RP-LC retention time is 766 s.

With `COCCOCC1CCN(C(=O)CNC(=O)c2ccccc2)CC1`, the RP-LC retention time was 620 s.

Regarding `CCOC(=O)CNC(=O)NCc1cccn1Cc1ccccc1C`, the RP-LC retention time was 737 s.

For the compound `Cc1cc(N2CCN(C(=O)c3ccc(C#N)cc3)CC2)nc2nnc(C)n12`, the RP-LC retention time came to 582 s.

With `CN(C)S(=O)(=O)c1ccc(-c2nnc(C(=O)NCc3ccccn3)o2)cc1`, the RP-LC retention time is 649 s.

`O=C(NCc1cccc(F)c1)N1CCC(n2c(-c3ccco3)nc3cccnc32)C1` (centres undefined) registered an RP-LC retention time of 774 s.

With `COc1ccc2cc(OCC3(C(=O)O)CN(C(=O)c4ccc(F)cc4)C3)ccc2c1`, the RP-LC retention time is 969 s.

The compound `CCC1CN2C=Nc3oc(C)c(C(=O)Nc4ccc(F)cc4Br)c3C2=N1` (centres undefined) registered an RP-LC retention time of 682 s.

Take `CN1c2ccccc2C(=O)NC12CCN(C(=O)c1ccc(F)c(F)c1)CC2`: the RP-LC retention time worked out at 746 s.

Compound `C=Cc1ccc(Cn2cc(S(=O)(=O)N3CCOCC3)ccc2=O)cc1` came in with an RP-LC retention time of 825 s.

Compound `CCN(C(=O)Cn1ncc2c(c1=O)N(C)C(=O)CS2)c1cccc(C)c1` registered an RP-LC retention time of 756 s.

`COc1cc(Br)cc(CC2C(=O)Nc3ccccc32)c1OC` (centres undefined) showed an RP-LC retention time of 932 s.

With `O=C(CCN1C(=O)c2cccnc2Sc2ccccc21)NCCc1c[nH]c2ccccc12`, the RP-LC retention time was determined as 746 s.

Regarding `COc1ccc2[nH]c(=O)c(CCC(=O)NCc3ccc(OC)c(OC)c3)cc2c1`, the RP-LC retention time came out at 648 s.

In turn, `CCCn1nnnc1NCc1ccc(-c2ccc(Br)cc2)o1` displayed an RP-LC retention time of 957 s.

`CCOc1cc(N2CCN(C(=O)c3cc(Cl)ccc3OC)CC2)nc(C)n1` registered an RP-LC retention time of 610 s.

As for `CCN1CCN(c2cc(C(=O)O)c3cc(NS(=O)(=O)c4cc(C)c(C)cc4C)ccc3n2)CC1`, the RP-LC retention time was found to be 629 s.

Consider `Cn1cccc1CN(C(=O)C1(c2ccccc2)CCOCC1)C1CC1`, for which the RP-LC retention time stood at 843 s.

Consider `O=C(c1n[nH]c2ccccc12)N1CCCn2nc(-c3ccncc3)cc2C1`, for which the RP-LC retention time was 603 s.

Compound `CC1CC(=O)N(CC(=O)Nc2cccc(Cl)c2)c2ccccc2S1(=O)=O` (centres undefined) showed an RP-LC retention time of 796 s.

Consider `O=C(Cn1nc(N2CCCCCC2)c2ccccc2c1=O)Nc1ccc(F)cc1`, for which the RP-LC retention time worked out at 1090 s.

In turn, `CC(C)CC(=O)N1CCc2cc(CNS(=O)(=O)Cc3ccccc3)ccc21` showed an RP-LC retention time of 610 s.

The compound `COc1nccnc1N1CCC(N(C)C(=O)c2ccc(C)s2)C1` (centres undefined) came in with an RP-LC retention time of 785 s.

In turn, `COC(=O)c1ccc2c(=O)n(-c3cc(C)cc(C)c3)c(N3CCN(Cc4ccccc4)CC3)nc2c1` showed an RP-LC retention time of 770 s.
